{"source": "patent US10449547B2", "about": "“Preparation of a powdery pharmaceutical composition by means of cryo-milling” (GRÜNENTHAL GMBH, priority 2013, dated 2019)", "assay": "Relative alpha-tocopherol content within blend before and after cryo-milling", "assay_type": "physicochemical", "text": "Relative Alpha-Tocopherol Content within Blend Before and after Cryo-Milling: […]"}
{"molecule": "Cc1c(C)c2c(c(C)c1O)CC[C@@](C)(CCC[C@H](C)CCC[C@H](C)CCCC(C)C)O2", "note": "[alpha-tocopherol]", "values": [{"measurement": "degradation of alpha-tocopherol with cryo-milling process", "result": "did not degrade"}]}
